# Measured values from US7358064B2, “Kits for measuring cellular transmembrane potential changes” (Molecular Devices Corporation, priority 2001, dated 2008).
# Tests used:
# [1] = target: T1, purinergic P2X2 ligand-gated ion channel (Homo sapiens, UniProt Q9UBL9); assay: ATP dose response in FLIPR membrane potential assay with DiSBAC1(3); format: cell-based; conditions: ATP dose response in P2X2 cells loaded with DiSBAC1(3); worded as 'should be approximately'
# T1 construct: expressed in transfected cells; host or cells: 1321N1 astrocytoma cells
# T1 sequence (Q9UBL9 1-471): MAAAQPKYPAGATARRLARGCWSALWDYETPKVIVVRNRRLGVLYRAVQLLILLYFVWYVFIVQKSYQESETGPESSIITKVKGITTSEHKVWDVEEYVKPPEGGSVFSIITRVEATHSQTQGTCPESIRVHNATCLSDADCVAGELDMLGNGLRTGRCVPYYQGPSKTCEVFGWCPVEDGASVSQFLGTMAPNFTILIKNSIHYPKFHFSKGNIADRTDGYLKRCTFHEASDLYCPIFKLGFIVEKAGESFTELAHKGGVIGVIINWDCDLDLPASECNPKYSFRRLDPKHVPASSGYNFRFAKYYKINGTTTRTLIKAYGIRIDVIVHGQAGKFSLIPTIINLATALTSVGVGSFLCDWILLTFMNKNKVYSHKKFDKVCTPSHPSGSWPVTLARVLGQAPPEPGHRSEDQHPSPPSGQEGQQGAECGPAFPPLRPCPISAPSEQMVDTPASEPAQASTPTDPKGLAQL
# [2] = format: physicochemical; conditions: compared with the other oxonol dyes
# Method: (§1) DiSBAC1(3), DiSBAC2(3), DiSBAC3(3), DiSBAC4(3), DiBAC1(3) and DiBAC4(3) are dissolved in DMSO (3 mM). The DMSO stock solutions are respectively partitioned in 1:1 octanol/water mixture. The concentrations of the oxonol dyes in octanol and water layers are determined by absorption spectra.
# P2X2 cells = assay: FLIPR membrane potential assay, fluorescence response of dyes in P2X2 cells; format: cell-based; conditions: for Fluorescence enhancement by 10 μM ATP stimulation (in folds) / Response speed: P2X2 cells, FLIPR; for Response speed: ATP stimulation; for Response to membrane potential change (speed, in words): compared with other DiBAC/DiSBAC dyes; for Signal strength: compared with other members of the DiBAC and DiSBAC family, FLIPR and other fluorescence devices
# Description: This specific example illustrates how to use DiSBA1(3) in P2X2 cells in combination with the FLIPR™ fluorescent imaging plate reader sold by Molecular Devices Corp. of Sunnyvale, Calif. P2X2 cells are 1321 N1 astrocytoma cells transfected to overexpress the purinergic P2X2 ligand-gated ion channel. P2X2 belongs to a class of purinergic ion channels that pass calcium and sodium in response to purine, including adenosine 5′-triphosphate (ATP). P2X2 cells are propagated and maintained in DME (high glucose), 10% FCS, 1× Pen/Strep and 2 mM L-glutamine. Doubling time is approximately 36 hours. P2X2 cells should be split at a 1 to 2 ratio upon confluence. The cells should be carried for no more than 20 passages. When approaching this limit, a new frozen vial of cells should be resurrected. Following is a typical kit procedure: • 1. Plate 40,000 P2X2 cells in 100 μL per well for 96 well plates or 10,000 P2X2 cells in 25 μL per well for 384 well plates for overnight.
# 2. Prepare 1× Loading Buffer. • 2.1 To prepare the 1× Assay Buffer, pipette 10 mL of 10× Reagent Buffer (1× Hanks' Balance Saline Solution+20 mM HPEPES, pH 7.40) and dilute in 90 mL of distilled water. Adjust pH to 7.4 using 1.0 N NaOH and/or 1.0 N HCl. • 2.2 To prepare 10 mM stock solution of DiSBAC1(3), dissolve 3.8 mg DiSBAC1(3) in 1 mL DMSO • 2.3 To prepare 10% pluronic acid, dissolve 400 mg pluronic acid in 4 mL water. Heat to 37° C. to complete dissolution. • 2.4 To prepare 1× Loading Buffer, add 30 μL of stock DiSBAC1(3), 8 μL 10% pluronic acid, and 20.0 mg DB71 in the 1× FLIPR assay buffer. • 3. Load Cells with 1× Loading Buffer • 4. Remove cell plates from the incubator • 5. Add 100 μL of 1× Loading Buffer per well of 96-well plates or 25 μL per well of 384-well plates. • 6. Incubate plates at 37° C. for 30 minutes. • 7. Run the FLIPR Membrane Potential Assay • 7.1 Make 5× compound plate prior to running the FLIPR assay. Dissolve 27.5 mg of ATP (Sigma Cat# A3377) in 1 mL of sterile water to make a 50 mM stock solution. […] Choose p2x2.fcf for experimental setup in the FLIPR software. Set up the appropriate experiment parameters. • 7.3 After incubation, transfer the plates directly to FLIPR and begin the Membrane Potential Assay. • 8. Run FLIPR and perform data analysis.
# DiSBAC1(3), DiSBAC2(3), DiSBAC3(3), DiSBAC4(3), DiBAC1(3) and DiBAC4(3) are dissolved in DMSO (1 mM). The stock solutions are respectively used to assay membrane potential changes in the P2X2 cells in combination with FLIPR™ as described in Example 2.
# [3] = Octanol/water partition of DiBAC and DiSBAC dyes, read by absorption spectra; format: physicochemical; conditions: for Absorbance in Octanol / Absorbance in Water: 3 mM DMSO stock partitioned in 1:1 octanol/water; for Absorbance in Octanol: octanol layer; for Absorbance in Water: water layer; for Absorbance in Water/Absorbance in Octanol: 1:1 octanol/water partition; for Relative Values: water/octanol ratio relative to DiBAC1(3) (DiBAC dyes) or DiSBAC1(3) (DiSBAC dyes)
# Method: as §1
# PC12 = assay: DiSBAC1(3) as fluorescent indicator of transmembrane potential depolarization of PC12 cells; format: cell-based, rat; conditions: 75 mM potassium gluconate, 2.5 μM dye, 200 μM Direct Blue 71
# [4] = test system: voltage-gated sodium channels; format: cell-based, rat
smiles,measurement,setting,value
"Nc1ncnc2c1ncn2[C@@H]1O[C@H](COP(=O)(O)OP(=O)(O)OP(=O)(O)O)[C@@H](O)[C@H]1O [ATP, adenosine 5′-triphosphate]",EC50,[1],10 to 100 nM
CN1C(=O)C(=CC=Cc2c(O)n(C)c(=O)n(C)c2=O)C(=O)N(C)C1=O [DiBAC1(3)],Water solubility,[2],greater water solubility
same,Fluorescence enhancement by 10 μM ATP stimulation (in folds),P2X2 cells,3.7 folds
same,Response speed,P2X2 cells,fast
same,"Response to membrane potential change (speed, in words)",P2X2 cells,much faster response
same,"Response to membrane potential change (speed, in words)",P2X2 cells; listed as DiBAC1 (3),faster response
same,Signal strength,P2X2 cells,stronger signal
same,Absorbance in Octanol,[3],0.3104
same,Absorbance in Water,[3],1.297
same,Absorbance in Water/Absorbance in Octanol,[3],4.179
same,Relative Values,[3],1
CCCCN1C(=O)C(=CC=Cc2c(O)n(CCCC)c(=O)n(CCCC)c2=O)C(=O)N(CCCC)C1=O [DiBAC4(3)],Fluorescence enhancement by 10 μM ATP stimulation (in folds),P2X2 cells,3.3 folds
same,Response speed,P2X2 cells,slow
same,Absorbance in Octanol,[3],2.854
same,Absorbance in Water,[3],0.002501
same,Absorbance in Water/Absorbance in Octanol,[3],0.00088
same,Relative Values,[3],0.00021
"CN1C(=O)C(=CC=Cc2c(O)n(C)c(=S)n(C)c2=O)C(=O)N(C)C1=S [DiSBAC1(3), Bis-(1,3-dimethylthiobarbituric acid)trimethine oxonol]",Fluorescence change on cell depolarization,PC12,increased DiSBAC1(3) fluorescence
same,Fluorescence enhancement by 10 μM ATP stimulation (in folds),P2X2 cells,108.5 folds
same,Response speed,P2X2 cells,fast
same,"Response to membrane potential change (speed, in words)",P2X2 cells,faster response
same,Signal strength,P2X2 cells,stronger signal
same,Sensitivity to membrane potential change,P2X2 cells; compared with the rest of the DiSBACs,much more sensitive
same,Absorbance in Octanol,[3],0.9126
same,Absorbance in Water,[3],0.06147
same,Absorbance in Water/Absorbance in Octanol,[3],0.0674
same,Hydrophilicity,[3]; compared with the other oxonol dyes,much more hydrophilic
same,Relative Values,[3],1
CCN1C(=O)C(=CC=Cc2c(O)n(CC)c(=S)n(CC)c2=O)C(=O)N(CC)C1=S [DiSBAC2(3)],Fluorescence enhancement by 10 μM ATP stimulation (in folds),P2X2 cells,38.6 folds
same,Response speed,P2X2 cells,moderate
same,Absorbance in Octanol,[3],2.187
same,Absorbance in Water,[3],0.01143
same,Absorbance in Water/Absorbance in Octanol,[3],0.0052
same,Relative Values,[3],0.078
CCCN1C(=O)C(=CC=Cc2c(O)n(CCC)c(=S)n(CCC)c2=O)C(=O)N(CCC)C1=S [DiSBAC3(3)],Fluorescence enhancement by 10 μM ATP stimulation (in folds),P2X2 cells,14.5 folds
same,Response speed,P2X2 cells,slow
same,Absorbance in Octanol,[3],4.331
same,Absorbance in Water,[3],0.002256
same,Absorbance in Water/Absorbance in Octanol,[3],0.0005
same,Relative Values,[3],0.0077
CCCCN1C(=O)C(=CC=Cc2c(O)n(CCCC)c(=S)n(CCCC)c2=O)C(=O)N(CCCC)C1=S [DiSBAC4(3)],Fluorescence enhancement by 10 μM ATP stimulation (in folds),P2X2 cells,2.3 folds
same,Response speed,P2X2 cells,slow
same,Absorbance in Octanol,[3],3.226
same,Absorbance in Water,[3],0.003318
same,Absorbance in Water/Absorbance in Octanol,[3],<0.0010
same,Relative Values,[3],<0.0077
"NC1=N[C@H](O)[C@H]2[C@H]3O[C@]4(O)O[C@@H]([C@@H](O)[C@@]2(N1)[C@@H]4O)[C@]3(O)CO [TTX, tetrodotoxin]",Change in membrane potential (fluorescence increase) upon potassium addition,[4],smaller increase in fluorescence
